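Values below derive from 48-hour exposures of cells grown in 96-well plates, with endpoints linearly interpolated between the two concentrations bracketing the appropriate inhibition level. The concentration for 50% growth inhibition is given as GI50.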 Active and inactive are the calls of the source. Cut-off read from the data, not from the text of the source: active = GI50 up to about 1.1 µM and inactive = higher.

Test systems include UACC-62; TK-10; UACC-257; HT-29; HCC 2998; BT-549; HCT-116; EKVX; SK-OV-3; MCF7; SNB-19; CAKI-1; CCRF-CEM; NCI-H522; 786-0; SK-MEL-5; KM12; LOX IMVI; SNB-75; SF-539.
What all share (test): growth of human tumour cells (NCI), 48 h

For `O=C1C=C2CO[C@H]3OC[C@H](O)[C@@H]1[C@@H]23`, the GI50 in the assay on UACC-62 was 67.5 µM (inactive); in the assay on TK-10 it was 59.3 µM (inactive); with UACC-257, 29.8 µM (inactive); with HT-29 it was > 100 µM (inactive); in the assay on HCC 2998, 29 µM (inactive); in the assay with BT-549 it was 53.1 µM (inactive). Besides, the GI50 with HCT-116 is 88.1 µM (inactive); in the assay on EKVX it was > 100 µM (inactive); in the assay with SK-OV-3, > 100 µM (inactive); with MCF7 it was 43.2 µM (inactive); in the assay with SNB-19, > 100 µM (inactive); in the assay with CAKI-1, 29 µM (inactive). For the same compound, the GI50 in the assay with CCRF-CEM was 19 µM (inactive); with NCI-H522 it was 16.5 µM (inactive); in the assay with 786-0, 35 µM (inactive); in the assay on SK-MEL-5, > 100 µM (inactive); in the assay with KM12 it was > 100 µM (inactive); with LOX IMVI, 32.7 µM (inactive). In the assay with SNB-75, the GI50 was 43 µM (inactive).

In the case of `CC(=O)O[C@H]1CC[C@H]2[C@@H]3CCC4=C(C(=O)C=CC4(C)OC(C)=O)[C@H]3CC[C@]12C` (stereo partly drawn), the GI50 is 23.1 µM (inactive) in the assay with UACC-62; > 100 µM (inactive) with TK-10; > 100 µM (inactive) with UACC-257; 46.6 µM (inactive) with HT-29; 38.3 µM (inactive) with HCC 2998; 26.2 µM (inactive) in the assay on BT-549. For the same compound, the GI50 in the assay with HCT-116 was 33.2 µM (inactive); with EKVX, > 100 µM (inactive); in the assay with MCF7 it was 26.4 µM (inactive); with SNB-19 it was > 100 µM (inactive); in the assay on CAKI-1, > 100 µM (inactive); in the assay on CCRF-CEM, 31.6 µM (inactive). Besides, the GI50 is 45.8 µM (inactive) with NCI-H522; 86.7 µM (inactive) in the assay on 786-0; 43.6 µM (inactive) in the assay with SF-539; 47.9 µM (inactive) in the assay on SK-MEL-5; 29.1 µM (inactive) with KM12; 38.1 µM (inactive) in the assay on LOX IMVI. In addition, in the assay on SNB-75, the GI50 was 45 µM (inactive).

`O=[N+]([O-])c1cccc2nc3ccccc3c(NCCN(CCO)CCO)c12`: the GI50 with UACC-62 was 0.00396 µM (active); in the assay with TK-10, 0.00836 µM (active); in the assay with HT-29, 0.00256 µM (active); in the assay with HCC 2998, 0.00235 µM (active); with BT-549 it was 0.00308 µM (active); in the assay on HCT-116, 0.00114 µM (active). The GI50 is 0.00731 µM (active) in the assay with EKVX; 0.00989 µM (active) in the assay with SK-OV-3; 0.00206 µM (active) with MCF7; 0.00783 µM (active) in the assay with SNB-19; 0.0064 µM (active) with CAKI-1; 0.00116 µM (active) in the assay on NCI-H522. The GI50 with 786-0 is 0.00429 µM (active); in the assay with SF-539 it was 0.00689 µM (active); with SK-MEL-5 it was 0.00192 µM (active); in the assay with KM12 it was 0.00498 µM (active); with LOX IMVI, 0.00701 µM (active); with SNB-75, 0.00726 µM (active).

Take `Cc1ccc(C(=O)Nc2ccc(CP(=O)(O)O)cc2)cc1NC(=O)Nc1cc(C(=O)Nc2ccc(CP(=O)(O)O)cc2)ccc1C`: the GI50 with UACC-62, in the assay on TK-10, with UACC-257, with HT-29, with HCC 2998 and in the assay on BT-549 was > 100 µM (inactive) in each case. The GI50 in the assay on HCT-116, with EKVX, in the assay with SK-OV-3, in the assay on MCF7, in the assay with CAKI-1 and in the assay with CCRF-CEM was > 100 µM (inactive) throughout. Besides, the GI50 in the assay on NCI-H522, in the assay on 786-0, in the assay with SF-539, in the assay with SK-MEL-5, in the assay on KM12 and with LOX IMVI was > 100 µM (inactive) in each case. In addition, the GI50 with SNB-75 is > 100 µM (inactive).

On to `CCOC(=O)c1cc2ncccc2c2ccccc12`, for which the GI50 with UACC-62, with TK-10, in the assay with UACC-257, in the assay with HT-29, in the assay with HCC 2998 and in the assay with BT-549 was > 100 µM (inactive) throughout. For the same compound, the GI50 in the assay on HCT-116, in the assay with EKVX, in the assay with SK-OV-3, in the assay with MCF7, with SNB-19 and in the assay with CAKI-1 was > 100 µM (inactive) in each case. Besides, the GI50 in the assay with CCRF-CEM, in the assay with NCI-H522, in the assay on 786-0, in the assay on SK-MEL-5, in the assay on KM12 and in the assay with LOX IMVI was > 100 µM (inactive) in each case. Also, the GI50 in the assay on SNB-75 is > 100 µM (inactive).

Regarding `CCOC(=O)c1c(OCC)[nH]c(=O)c(C(c2cccs2)c2c(O)c(C(=O)OCC)c(OCC)[nH]c2=O)c1O`, the GI50 is 14.2 µM (inactive) in the assay on UACC-62; 25.4 µM (inactive) in the assay on TK-10; 11.7 µM (inactive) in the assay on UACC-257; 16.1 µM (inactive) in the assay on HT-29; 13.9 µM (inactive) in the assay with HCC 2998; 5 µM (inactive) in the assay with BT-549. Moreover, the GI50 was 17.5 µM (inactive) in the assay on HCT-116; 11.5 µM (inactive) in the assay with EKVX; 14.9 µM (inactive) with MCF7; 11.4 µM (inactive) with SNB-19; 18 µM (inactive) with CAKI-1; 14.2 µM (inactive) in the assay on CCRF-CEM. The GI50 with NCI-H522 was 13.8 µM (inactive); in the assay on 786-0, 12.1 µM (inactive); in the assay on SF-539, 6.4 µM (inactive); in the assay on SK-MEL-5, 12.9 µM (inactive); with KM12, 17.9 µM (inactive); in the assay on LOX IMVI, 12.6 µM (inactive). In the assay on SNB-75, the GI50 was 0.082 µM (active).

Take `CN(C)CCCNC(=O)c1c(O)c2ccccc2[nH]c1=O`: the GI50 with UACC-62, with TK-10, with UACC-257, in the assay on HT-29, in the assay on HCC 2998 and with BT-549 was > 100 µM (inactive) each time. In addition, the GI50 in the assay on HCT-116 is > 100 µM (inactive); in the assay on EKVX it was > 100 µM (inactive); in the assay on SK-OV-3, > 100 µM (inactive); with MCF7, > 100 µM (inactive); in the assay with CAKI-1, 47.2 µM (inactive); in the assay with CCRF-CEM, > 100 µM (inactive). Further, the GI50 in the assay with NCI-H522, in the assay with 786-0, in the assay on SF-539, in the assay on SK-MEL-5, in the assay with KM12 and in the assay on LOX IMVI was > 100 µM (inactive) throughout. Besides, the GI50 with SNB-75 is > 100 µM (inactive).

As for `O=C(Cn1cc(-c2ccccc2)nn1)NC1CCCCC1`, the GI50 is > 100 µM (inactive) in the assay with TK-10; > 100 µM (inactive) with UACC-257; > 100 µM (inactive) in the assay on HT-29; 54.5 µM (inactive) in the assay on HCC 2998; > 100 µM (inactive) in the assay with BT-549; > 100 µM (inactive) with HCT-116. In addition, the GI50 with EKVX, in the assay on MCF7, in the assay with SNB-19, in the assay with CAKI-1, in the assay on CCRF-CEM and with NCI-H522 was > 100 µM (inactive) each time. Moreover, the GI50 with 786-0, with SF-539, with SK-MEL-5, with KM12, in the assay with LOX IMVI and with SNB-75 was > 100 µM (inactive) in each case.

Regarding `CC(C)N1C=[N+](C(C)C)CC1`, the GI50 in the assay on TK-10, with UACC-257, in the assay with HT-29, with HCC 2998, in the assay with BT-549 and in the assay on HCT-116 was > 100 µM (inactive) in each case. In addition, the GI50 with EKVX, with SK-OV-3, in the assay on MCF7, in the assay on SNB-19, with CAKI-1 and in the assay on CCRF-CEM was > 100 µM (inactive) throughout. The GI50 in the assay on NCI-H522, with 786-0, with SF-539, with SK-MEL-5, in the assay on KM12 and with LOX IMVI was > 100 µM (inactive) in each case. The GI50 in the assay on SNB-75 was > 100 µM (inactive).

As for `Cc1ccc(S(=O)(=O)NNC(=O)c2cc(C)c(C)cc2N)cc1`, the GI50 in the assay with UACC-62, in the assay with UACC-257, in the assay on HT-29, in the assay on HCC 2998, with BT-549 and in the assay on HCT-116 was > 100 µM (inactive) each time. In addition, the GI50 in the assay with EKVX, with SK-OV-3, with MCF7, with SNB-19, in the assay with CAKI-1 and in the assay on CCRF-CEM was > 100 µM (inactive) each time. Also, the GI50 is 47 µM (inactive) with NCI-H522; > 100 µM (inactive) with 786-0; > 100 µM (inactive) in the assay with SF-539; > 100 µM (inactive) with SK-MEL-5; > 100 µM (inactive) in the assay on KM12; > 100 µM (inactive) in the assay on LOX IMVI. In the assay on SNB-75, the GI50 is > 100 µM (inactive).

Source of the values: ChEMBL document CHEMBL1201862, “PubChem BioAssay data set” (2004).
